Results published in US20010010919A1 (priority 1998, published 2001).
“Also recorded” adds a separate entry of the source.

Columns and labels:
[1] = target: T1, novel mammalian opioid receptor (LC132, OFQR) (Rattus norvegicus, UniProt P35370); format: binding
T1 construct: The entire coding region of the receptor cDNA insert was subcloned into the RcRVS vector; expressed in transfected cells

[2] = system: untransfected COS-7 and Ltk^− cells; test: Radioligand binding to membranes of untransfected cells (control); conditions: untransfected cell membranes
[3] = system: Swiss-Webster mice; test: Tail-withdrawal (TW) test 46° C., stress-induced analgesia; format: in vivo, mouse; conditions: for hyperalgesia: 46° C. TW test; for effect on the 4 s post-injection increase in TW latency (stress-induced analgesia): OFQ 10 nmole icv, naloxone 1 mg/kg sc
Protocol: The latency to respond to the heat stimulus by a vigorous flexion of the tail was measured to the nearest 0.1 s by an experienced observer blind to the drug condition of the animal. Mice were lightly restrained in a cloth/cardboard holder during testing. In the absence of a withdrawal reflex or other indication of distress, the tail was removed from the water after a cut-off latency of 15 s. To improve accuracy, three separate TW latency determinations, separated by 20 s, were made and averaged at each test. […] Because there were no changes in post-injection TW latencies in any group with repeated testing at 10, 20 and 30 min post-injection, data from these time points were pooled.

[4] = system: mice; test: Acetic acid abdominal constriction (AC, writhing) test; format: in vivo, mouse; conditions: for effect on SIA (decreased number of abdominal constrictions): OFQ 2.5 nmole icv, NAL sc
Protocol: This test is an extremely sensitive measure of tonic, chemically-induced pain stimulus.
The AC assay was a modification of the technique originally described by Koster et al. Mice (N=9-15 per group) were acclimated to individual cylindrical Plexiglass observation chambers for >30 minutes. […] A separate group of Sal-treated mice received no icv injection (None). Between 5 and 10 minutes later, all mice were given an intraperitoneal (ip) injection of 0.9% acetic acid and placed back in their observation chambers. For the next 30 minutes, the number of abdominal constrictions (lengthwise stretches of the torso with a concomitant concave arching of the back) were counted and recorded. Four mice in separate chambers were observed simultaneously by a single experimenter blind to drug condition.

[5] = system: mice; test: Open-field observation and locomotor activity after icv administration; format: in vivo, mouse
Protocol: For these experiments, the peptide was administered intracerebroventricularly (icv) and intrathecally (it) in mice. Immediately after peptide administration, mice were placed in transparent boxes in groups of three, and behavioral signs recorded. Emphasis was placed on signs indicative of depressant, stimulant and autonomic effects of the peptide (as described by Irwin, 1968, Psychopharmacologia 13: 222). […] The effects of the peptide on horizontal and vertical locomotor activity was measured using Digiscan Animal Activity Monitors (Omnitech, Columbus, Ohio). The values for horizontal and vertical locomotor activity represent the total number of interruptions of the horizontal and vertical sensors during the first 10 minutes following administration of the peptide. Data are shown as the mean±standard error of the mean.

[6] = system: DBA/2J mice; test: Morphine hypothermia and Straub tail, core body temperature
[7] = system: mice; test: Nociception in mice (hot plate, toe- and tail-pinch) after icv or intrathecal administration; format: in vivo, mouse
[8] = system: Swiss-Webster mice; test: Reversal of morphine analgesia, 49° C. TW test; format: in vivo, mouse
[9] = Meunier et al., Nature 377,532-535 (1995); cited from earlier work
[10] = system: C57BL/6J mice; test: Precipitation of withdrawal in morphine dependent mice (withdrawal jumping); format: in vivo, mouse

T1 sequence (P35370 whole entry): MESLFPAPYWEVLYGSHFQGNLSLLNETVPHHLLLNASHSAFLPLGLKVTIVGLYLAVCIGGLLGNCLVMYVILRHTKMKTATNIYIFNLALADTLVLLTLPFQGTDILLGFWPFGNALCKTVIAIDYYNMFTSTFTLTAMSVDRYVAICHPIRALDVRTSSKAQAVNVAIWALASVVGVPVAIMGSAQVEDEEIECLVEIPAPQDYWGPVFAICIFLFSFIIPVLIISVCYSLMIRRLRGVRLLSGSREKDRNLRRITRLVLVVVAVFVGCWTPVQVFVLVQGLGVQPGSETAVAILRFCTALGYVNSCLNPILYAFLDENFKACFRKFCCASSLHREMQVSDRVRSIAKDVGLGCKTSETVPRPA

With “c[D-penicillamine^2, D-penicillamine^5]enkephalin [DPDPE]” the “specific binding of the radioactively-labeled ligand” value (shortened to “specific binding”) [1] was “no specific binding”.

For CN1CC[C@]23c4c5ccc(O)c4O[C@H]2[C@@H](O)CC[C@H]3[C@H]1C5 [dihydromorphine], the “specific binding” value [1] was “no specific binding”.

For CCC12CCN(CC3(O)CC3)C(Cc3ccc(O)cc31)C2(C)C (centres unmarked) [bremacozine], the “specific binding” value [1] was “no specific binding”.

In the case of CCC(=O)C(CC(C)N(C)C)(c1ccccc1)c1ccccc1 (centres unmarked) [methadone], the Bmax [1] is reported as 400-450 fentomoles/μg protein, the “specific binding” value [1] is reported as “specific binding was found” and the “endogenous binding of the radiolabeled ligand” value [2] is reported as “no or negligible amounts of endogenous methadone binding”.

For C[C@@H](NC(=O)[C@@H](N)Cc1ccc(O)cc1)C(=O)NCC(=O)N(C)[C@@H](Cc1ccccc1)C(=O)NCCO [DAMGO, Tyr-DAla-Gly-Met-Phe-Gly-ol], the “specific binding” value [1] was “no specific binding”.

In the case of C=CCN1CC[C@]23c4c5ccc(O)c4O[C@H]2C(=O)CC[C@@]3(O)[C@H]1C5 [naloxone, reference compound], the “endogenous binding of the radiolabeled ligand” value [2] is reported as “endogenous low levels of specific”, the hyperalgesia [3] is reported as “In no case did any mouse treated with OFQ or naloxone exhibit hyperalgesia” and the “effect on the 4 s post-injection increase in TW latency (stress-induced analgesia)” value [3] is reported as “attenuated”. The “effect on SIA (decreased number of abdominal constrictions)” value [4] was “reversed”.

With CC(C)C[C@H](NC(=O)[C@H](CCCCN)NC(=O)[C@H](CCCNC(=N)N)NC(=O)[C@H](C)NC(=O)[C@H](CO)NC(=O)[C@H](CCCCN)NC(=O)[C@H](CCCNC(=N)N)NC(=O)[C@H](C)NC(=O)CNC(=O)[C@@H](NC(=O)[C@H](Cc1ccccc1)NC(=O)CNC(=O)CNC(=O)[C@@H](N)Cc1ccccc1)[C@@H](C)O)C(=O)N[C@@H](C)C(=O)N[C@@H](CC(N)=O)C(=O)N[C@@H](CCC(N)=O)C(=O)O [OFQ] the “horizontal and vertical locomotion” value ([5]; icv 0.1-10 nmole/2 μL/mouse, first 10 minutes) was “decrease of both horizontal and vertical locomotion”, the open-field behavioral signs ([5]; larger doses, above 1 nmole/2 μL/mouse) was “profound influence on locomotor activity, as well as a decrease in muscle tone, a loss of righting reflex, and ataxia” and the “reversal of 20 mg/kg MOR hypothermia” value ([6]; 5 and 10 nmole i.c.v., 60-90 minutes post-MOR injection) was “significantly reversed”. For the same compound, the “effect of the substance itself on body temperature” value ([6]; 5 or 10 nmole i.c.v.) was “did not affect body temperature”, the “elimination of morphine Straub tail” value ([6]; at least 5 nmole OFQ icv) was “effectively eliminated Straub tail in the vast majority of animals” and the “time to elimination of Straub tail following icv injection” value ([6]; at least 5 nmole OFQ icv) was 1 to 2 min. The “toe- and tail-pinch reflexes” value ([7]; all doses tested) was “normal toe- and tail-pinch reflexes”, the “analgesic effect in hot plate test” value ([7]; icv, hot plate 58° C., cutoff 60 sec) was “little analgesic effect” and the “analgesic effect, intrathecal” value ([7]; intrathecally 2.5-10 nmole/4 μL/animal) was “No analgesic effect”. The hyperalgesia [3] was “no evidence of hyperalgesia”, the “effect on the 4 s post-injection increase in TW latency (stress-induced analgesia)” value [3] was “attenuated” and the “reversal of morphine analgesia” value ([8]; OFQ 2.5-25 nmole i.c.v.) was “reversed this analgesia in a dose-dependent manner”. For the same compound, the “ED50, 50% inhibition of 5 mg/kg morphine analgesia” value ([8]; i.c.v. in a 2.5 μl volume, linear regression) was 7.5 nmol, the “effect on pain sensitivity in tail flick and hot-plate assays” value [9] was “induces hyperalgesia” and the “precipitated withdrawal syndrome (withdrawal jumping)” value ([10]; OFQ 0.1-10 nmole i.c.v., 20-min testing period) was “equally effective in the precipitation of withdrawal; also recorded: unequivocal, albeit modest in comparison to that produced by systemic naloxone”. The other withdrawal symptoms ([10]; OFQ i.c.v.) was “wet-dog shakes and ptosis, were observed”, the “inhibition of the analgesic effect of morphine” value ([4]; 2.5 nmole icv, within 30 minutes) was “pharmaceutically sufficient to inhibit the analgesic effect of morphine” and the “effect on SIA (decreased number of abdominal constrictions)” value [4] was “reversed”.

With “β-endorphin: endogenous opioid peptide, 125I-labeled” the “specific binding” value [1] was “no specific binding”.

For CN1CC[C@]23c4c5ccc(O)c4O[C@H]2[C@@H](O)C=C[C@H]3[C@H]1C5 [morphine], the Straub tail production ([6]; morphine 20 mg/kg) was “produced Straub tail”, the “decrease in body temperature” value ([6]; morphine 20 mg/kg i.p.) was 6 °C and the analgesia produced ([8]; morphine sulfate 5 mg/kg s.c.) was “profound analgesia”. For the same compound, the duration of analgesia ([8]; morphine sulfate 5 mg/kg s.c.) was “about 2 hours” and the “time of peak analgesia post-injection” value ([8]; morphine sulfate 5 mg/kg s.c.) was 30 min.
